For twelve compounds, IC50, inhibition and melting point results are on record in article PMC6300282, “Sulphamethazine derivatives as immunomodulating agents: New therapeutic strategies for inflammatory diseases” (PLoS ONE, 2018).

Values after ≈ are worked out from the molar mass of the structure shown.

The subject of series [1] is isolated polymorphonuclear neutrophils (PMNs). In words: Oxidative burst assay (luminol-enhanced chemiluminescence), isolated PMNs. It is filed as cell-based. The settings on record: Polymorphonuclear neutrophil, isolated human PMNs, zymosan, three doses 1, 10, 100 μg/mL, mean ± SD of three, read-out: Oxidative Burst Inhibition (IC50) PMNs. An excerpt:
Heparinized blood was obtained by vein puncture aseptically from healthy volunteers. The PMNs were isolated by ficoll-Hypaque density gradient method. The cells were isolated after centrifugation from the tube base. Cells were washed twice and suspended in Hank’s Balance salt solution (HBSS^--) (Ca^2+ and Mg^2+ free), RBCs were lysed using hypotonic solution. Cells were adjusted to their required concentration (1x10^6 cells/mL) using HBSS^++containing Ca^2+ and Mg^2+.
Luminol-enhanced chemiluminescence assay was performed, as described by Helfandet al., 1982 [17], with some modifications. Briefly 25 μL of diluted whole blood in HBSS^++ (Hanks Balanced Salt Solution, containing calcium chloride and magnesium chloride) [Sigma, St. Louis, USA] was incubated with 25 μL of three different concentrations of compounds (1, 10, and 100 μg/mL), each in triplicate. Control wells received HBSS^++ and cells, but no compounds. Test was performed in white half area 96-well plates [Costar, NY, USA], which was incubated at 37 °C for 15 minutes in the thermostat chamber of luminometer [Labsystems, Helsinki, Finland]. After incubation, 25 μL of serum opsonized zymosan (SOZ) [Fluka, Buchs, Switzerland] and 25 μL of intracellular reactive oxygen species detecting probe, luminol [Research Organics, Cleveland, OH, USA] were added into each well, except blank wells (containing only HBSS^++). The level of the ROS was recorded in luminometer in term of relative light units (RLU).

Series [2] deals with nitric oxide (NO) production from LPS activated J774.2 mouse macrophages. In words: Nitric oxide production (Griess), LPS activated macrophages. It is filed as cell-based. The settings on record: J774.2 cells, 30 μg/mL LPS, three doses 1, 10, 100 μg/mL, mean ± SD of three, read-out: NO Inhibition (IC50). How it is done:
The mouse macrophage cell line J774.2 (European Collection of Cell Cultures, UK) was cultured in 75 cc flasks IWAKI (Asahi Techno Glass, Japan) in DMEM Sigma-Aldrich (Steinheim, Germany) supplemented with 10% fetal bovine serum GIBCO (New York, USA)1% streptomycin/penicillin. Flasks were kept at 37 °C in atmosphere of humidified air containing 5% CO2, cells were seeded in 96-well plate (10^6 cells/mL) and were induced by 30 μg/mL e. coli lipopolysaccharide (LPS) (DIFCO Laboratories michigon, USA). The test compounds were added at concentrations of (1, 10 and 100 μg/mL) and plate was incubated at 37 °C in 5% CO2. Nitrite accumulation in culture supernatant was measured using the Griess reagents as described previously.
In general terms: Nitrite, measured by Griess reagent, commonly stands in for NO production.

The nature of a further series: MTT cytotoxicity assay. It is filed as cell-based, mouse. The settings on record: mouse; for IC50: MTT, 48 hours, read-out: Cytotoxicity NIH-3T3 cell line (IC50). How it is done: The cytotoxicity was recorded as concentration causing 50% growth inhibition (IC50).
Series [3] relates to Salmonella typhi (ATCC 14028). In words: Microplate Alamar Blue Assay, Salmonella typhi. It is filed as cell-based. The settings on record: Salmonella enterica; 200 μg/mL; NI = No inhibition; read-out: Percentage (%) Inhibition, Slamonella typhi.

What is called IC50 is the concentration needed to halve the response being measured. As a reminder, the inhibition is how much of the control response was suppressed. Turning to `Cc1cc(C)nc(NS(=O)(=O)c2ccc(NC(=O)c3ccc(F)cc3)cc2)n1` [Compound 12, N-(4-(N-(4,6-dimethylpyrimidin-2-yl)sulfamoyl)phenyl)-4-fluorobenzamide], the results for the IC50 (in series [1]; in series [2]; in the series “MTT cytotoxicity assay”) were 3.3 ± 0.05 µg/mL, 10.8 ± 2.1 µg/mL (≈ 27 µM) and > 30 µM, respectively. Also, the inhibition at 200 µg/mL in series [3] turned out to be 19%.
Taken in the same sequence, the figures for `Cc1cc(C)nc(NS(=O)(=O)c2ccc(NC(=O)c3ccc(F)c(C(F)(F)F)c3)cc2)n1` [Compound 10, N-(4-(N-(4,6-dimethylpyrimidin-2-yl)sulfamoyl)phenyl)-4-fluoro-3-(trifluoromethyl)benzamide] were 3.4 ± 0.4 µg/mL, 7.3 ± 0.2 µg/mL (≈ 15.6 µM), > 30 µM and < 0%.
In general, melting point refers to the temperature of the solid-liquid transition. With `Cc1cc(C)nc(NS(=O)(=O)c2ccc(NC(=O)c3cc(F)cc(F)c3)cc2)n1` [Compound 7, N-(4-(N-(4,6-dimethylpyrimidin-2-yl)sulfamoyl)phenyl)-3,5-difluorobenzamide], the melting point fell in the range of 237 to 240 °C. Moreover, the IC50 in series [1] turned out to be 2.9 ± 0.3 µg/mL. Further, the IC50 in series [2] was determined as 8 ± 0.3 µg/mL (≈ 19.1 µM). For the same compound, the IC50 in “MTT cytotoxicity assay” was > 30 µM. Further, the inhibition at 200 µg/mL in series [3] is 13.1%.
With `Cc1cc(C)nc(NS(=O)(=O)c2ccc(NC(=O)c3cccc(CCl)c3)cc2)n1` [Compound 4, 3-(Chloromethyl)-N-(4-(N-(4,6-dimethylpyrimidin-2-yl)sulfamoyl)phenyl)benzamide], the IC50 in series [1] was 6.1 ± 0.08 µg/mL; in series [2], < 1 µg/mL; in the series “MTT cytotoxicity assay” it was > 30 µM. For the same compound, the inhibition at 200 µg/mL in series [3] is < 0%.
Taken in the same sequence, the figures for `Cc1cc(C)nc(NS(=O)(=O)c2ccc(NC(=O)c3cc(F)cc(C(F)(F)F)c3)cc2)n1` [Compound 8, N-(4-(N-(4,6-dimethylpyrimidin-2-yl)sulfamoyl)phenyl)-3-fluoro-5-(trifluoromethyl)benzamide] were 2.4 ± 0.07 µg/mL, 7.3 ± 0.3 µg/mL (≈ 15.6 µM), > 30 µM and 29.4%.
As to `Cc1cc(C)nc(NS(=O)(=O)c2ccc(N)cc2)n1` [compound 1, Sulfamethazine, reference compound], the results for the IC50 in series [1] and in series [2] were 5.2 ± 0.05 µg/mL and 18.9 ± 1.7 µg/mL (≈ 67.9 µM), respectively. In addition, the IC50 at 48 h in the series “MTT cytotoxicity assay” was > 30 µM. The inhibition at 200 µg/mL in series [3] was < 0%.
For `Cc1cc(C)nc(NS(=O)(=O)c2ccc(NC(=O)C(Br)CBr)cc2)n1` (stereo not drawn) [Compound 3, 2,3-Dibromo-N-(4-(N-(4,6-dimethylpyrimidin-2-yl)sulfamoyl)phenyl)propanamide], the IC50 in series [1] is 3.6 ± 0.05 µg/mL; in series [2] it was < 1 µg/mL; in “MTT cytotoxicity assay” it was > 30 µM. Further, the inhibition at 200 µg/mL in series [3] is < 0%.
Turning to `Cc1cc(C)nc(NS(=O)(=O)c2ccc(NC(=O)c3cccc([N+](=O)[O-])c3)cc2)n1` [Compound 13, N-(4-(N-(4,6-dimethylpyrimidin-2-yl)sulfamoyl)phenyl)-3-nitrobenzamide], the melting point was 251 to 253 °C. In addition, in series [1], the IC50 amounted to 4.9 ± 0.2 µg/mL. Moreover, in series [2], the IC50 came out at 10.9 ± 0.5 µg/mL (≈ 25.5 µM). Besides, in the series “MTT cytotoxicity assay”, the IC50 was > 30 µM. The inhibition at 200 µg/mL in series [3] is < 0%.
`Cc1cc(C)nc(NS(=O)(=O)c2ccc(NC(=O)c3ccc(C(F)(F)F)c(F)c3)cc2)n1` [Compound 9, N-(4-(N-(4,6-dimethylpyrimidin-2-yl)sulfamoyl)phenyl)-3-fluoro-4-(trifluoromethyl)benzamide]: the IC50 in series [1] was 2.8 ± 0.05 µg/mL; in series [2], 7.3 ± 0.4 µg/mL (≈ 15.6 µM); in “MTT cytotoxicity assay”, > 30 µM. Also, in series [3], the inhibition at 200 µg/mL was 0.94%.
`Cc1cc(C)nc(NS(=O)(=O)c2ccc(NC(=O)c3cc(C(F)(F)F)cc(C(F)(F)F)c3)cc2)n1` [Compound 6, N-(4-(N-(4,6-dimethylpyrimidin-2-yl)sulfamoyl)phenyl)-3,5-bis(trifluoromethyl)benzamide]: the values for the IC50 (in series [1]; in series [2]; in “MTT cytotoxicity assay”) were 3.4 ± 0.1 µg/mL, 7.8 ± 0.3 µg/mL (≈ 15 µM) and > 30 µM, respectively. In addition, in series [3], the inhibition at 200 µg/mL is < 0%.
As to `Cc1cc(C)nc(NS(=O)(=O)c2ccc(NC(=O)c3ccc(CCl)cc3)cc2)n1` [Compound 5, 4-(Chloromethyl)-N-(4-(N-(4,6-dimethylpyrimidin-2-yl)sulfamoyl)phenyl)benzamide], the IC50 in series [1] is 3 ± 0.06 µg/mL; in series [2], 6.9 ± 1.9 µg/mL (≈ 16 µM); in the series “MTT cytotoxicity assay” it was > 30 µM. Moreover, in series [3], the inhibition at 200 µg/mL is < 0%.
Turning to `Cc1cc(C)nc(NS(=O)(=O)c2ccc(NC(=O)C(C)Cl)cc2)n1` (stereo not drawn) [Compound 11, 2-Chloro-N-(4-(N-(4,6-dimethylpyrimidin-2-yl)sulfamoyl)phenyl)propanamide], the melting point lay within 256 to 258 °C. Besides, in series [1], the IC50 came to 6.2 ± 0.13 µg/mL. Moreover, in series [2], the IC50 came out at 26.3 ± 1.8 µg/mL (≈ 71.3 µM). Moreover, in the series “MTT cytotoxicity assay”, the IC50 was > 30 µM. In addition, in series [3], the inhibition at 200 µg/mL came to 29.6%.
